{
  "source": "patent US20080234304A1",
  "about": "“N3-Pyridyl-Thiamine And Its Use In Cancer Treatments” (AVEO PHARMACEUTICALS, INC., priority 2004, published 2008)",
  "key": {"[1]": {"molecular_target": "T1, alpha-ketoglutarate dehydrogenase (kGDH) (Homo sapiens, UniProt Q02218)", "T1 construct": "endogenous in cells", "T1 sequence (Q02218 41-1023)": "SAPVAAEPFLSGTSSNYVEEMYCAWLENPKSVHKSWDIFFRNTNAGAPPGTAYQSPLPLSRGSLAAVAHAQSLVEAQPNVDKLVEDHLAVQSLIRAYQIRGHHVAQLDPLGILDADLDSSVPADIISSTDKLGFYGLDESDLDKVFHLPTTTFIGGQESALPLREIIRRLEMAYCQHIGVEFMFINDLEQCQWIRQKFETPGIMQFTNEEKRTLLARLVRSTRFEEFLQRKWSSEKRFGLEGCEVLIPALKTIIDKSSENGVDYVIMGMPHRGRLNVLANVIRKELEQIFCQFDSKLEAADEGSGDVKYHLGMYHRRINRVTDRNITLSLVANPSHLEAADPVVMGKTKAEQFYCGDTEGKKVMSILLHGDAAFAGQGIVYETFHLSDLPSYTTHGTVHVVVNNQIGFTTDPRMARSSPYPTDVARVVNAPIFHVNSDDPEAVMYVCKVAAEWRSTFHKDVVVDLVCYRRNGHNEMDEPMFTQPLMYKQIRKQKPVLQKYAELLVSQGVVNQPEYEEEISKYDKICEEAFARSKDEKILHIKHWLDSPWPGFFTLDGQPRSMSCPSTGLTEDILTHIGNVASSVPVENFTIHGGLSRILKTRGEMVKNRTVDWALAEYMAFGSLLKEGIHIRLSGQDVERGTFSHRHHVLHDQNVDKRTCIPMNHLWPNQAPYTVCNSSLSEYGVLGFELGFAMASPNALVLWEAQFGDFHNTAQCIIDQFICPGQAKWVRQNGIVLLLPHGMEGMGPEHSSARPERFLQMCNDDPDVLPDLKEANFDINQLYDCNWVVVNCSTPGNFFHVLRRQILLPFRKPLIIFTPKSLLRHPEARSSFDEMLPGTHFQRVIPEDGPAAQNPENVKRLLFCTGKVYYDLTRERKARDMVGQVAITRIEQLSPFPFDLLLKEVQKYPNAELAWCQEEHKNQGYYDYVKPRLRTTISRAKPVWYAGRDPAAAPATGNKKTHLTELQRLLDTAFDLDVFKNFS", "T1 sequence (P36957 68-453 partner)": "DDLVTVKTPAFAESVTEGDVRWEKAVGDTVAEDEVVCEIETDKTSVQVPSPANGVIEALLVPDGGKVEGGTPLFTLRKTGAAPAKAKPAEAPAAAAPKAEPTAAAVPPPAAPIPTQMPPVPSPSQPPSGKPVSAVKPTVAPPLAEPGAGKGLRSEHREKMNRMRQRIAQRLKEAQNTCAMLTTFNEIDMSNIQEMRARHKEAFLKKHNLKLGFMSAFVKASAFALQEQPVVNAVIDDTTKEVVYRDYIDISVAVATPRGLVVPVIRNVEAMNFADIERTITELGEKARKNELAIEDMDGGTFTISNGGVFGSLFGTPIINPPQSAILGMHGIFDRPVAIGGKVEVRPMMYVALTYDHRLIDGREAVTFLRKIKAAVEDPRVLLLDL", "T1 sequence (P09622 36-509 partner)": "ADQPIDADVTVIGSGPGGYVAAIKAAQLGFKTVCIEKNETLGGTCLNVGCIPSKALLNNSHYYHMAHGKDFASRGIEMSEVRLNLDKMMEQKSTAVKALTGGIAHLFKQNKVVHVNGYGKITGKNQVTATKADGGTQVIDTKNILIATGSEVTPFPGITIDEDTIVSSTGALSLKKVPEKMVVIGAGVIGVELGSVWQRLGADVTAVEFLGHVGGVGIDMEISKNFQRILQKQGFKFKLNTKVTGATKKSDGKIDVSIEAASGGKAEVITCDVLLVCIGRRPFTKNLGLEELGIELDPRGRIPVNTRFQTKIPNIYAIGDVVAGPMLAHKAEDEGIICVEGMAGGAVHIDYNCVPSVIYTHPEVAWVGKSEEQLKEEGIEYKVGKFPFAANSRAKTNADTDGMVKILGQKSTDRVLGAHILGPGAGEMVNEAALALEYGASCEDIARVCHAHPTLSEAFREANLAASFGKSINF", "experiment": "kGDH activity in extracts from cells incubated with N3PT", "type": "cell-based", "conditions": "extracts from cells incubated with increasing concentrations of N3PT; read-out: IC50 kGDH (selectivity comparison, FIG. 9)", "method": "TK, kGDH and PDH enzymes all utilize thiamine pyrophosphate (TPP) as a co-factor for their catalysis. Conventional cell culture media (e.g., DMEM, RPMI) have high levels of thiamine (12 μM and 3 μM, respectively). High thiamine levels will mask the inhibitory effect of N3PT. Thus, to measure the IC50 of N3PT, a thiamine depleted DMEM, containing all the ingredients of normal DMEM except for thiamine (HyClone, custom order), was used. Thiamine-depleted media (TDM) is made up with thiamine-depleted DMEM, 10% FBS, which contains low amounts of thiamine (estimated to be ˜3-5 nM) and 1% Penicillin-streptomycin.\nLog-phase growing cells were trypsinized and resuspended in TDM. Twenty-four hours after seeding, 5 μl of 20× N3PT compound stock solution was added to the cells in 95 μl of TDM. After increasing times of N3PT treatment, cells were either subjected to enzymatic reactions directly or were frozen at −20° C. for future assays. […] TK activities could be measured from ≧5000 cells in most cell lines tested. […]\nEnzymatic inhibition was expressed as percent of control cells that were not treated with compounds. […]"}, "[2]": {"test_system": "LAMA84", "experiment": "inhibition of proliferation of LAMA84 cells", "type": "cell-based", "conditions": "LAMA84 chronic myeloid leukemia cell line", "method": "The ability of N3PT to inhibit proliferation of these cell lines was then tested. LAMA84 was the most sensitive to N3PT, displaying an IC50 of 0.3 μM. The other cell lines, HCT116 and K562, were less sensitive, displaying an IC50 of approximately 2 μM in both cases. LAMA84 also had the highest TK activity (per cell) among these three cancer lines."}},
  "data": [
    {"smiles": "Cc1ccc(C[n+]2csc(CCO)c2C)c(N)n1", "note": "[N3PT, 3-[(2-amino-6-methyl-3-pyridinyl)methyl]-5-(2-hydroxyethyl)-4-methyl thiazolium]", "values": [
      {"measurement": "IC50", "setting": "[1]", "value": 0.086, "unit": "µM"},
      {"measurement": "IC50", "setting": "[2]", "value": 0.3, "unit": "µM"}
    ]}
  ]
}
